Counter-ions that a name gives are not always drawn.
Legend:
[1] = Influence on amphetamine-induced hypermobility; type: in vivo, mouse; details: d-amphetamine sulfate 5 mg/kg i.p. alone
Protocol: Six groups of 4 mice each were treated with 5 mg/kg d-amphetamine sulfate by intraperitoneal administration. Six groups of 4 animals each received the same dose of d-amphetamine sulfate plus 250 mg/kg of AP-28 intraperitoneally 15 minutes after d-amphetamine sulfate; six more groups of four animals each received saline solution and served as control animals. […] The number of times each animal crossed the light beam throughout the 10-minute test was noted.

[2] = Protective effect against electroshock (MES); details: phenobarbital Na 40 mg/kg i.p., 10 minutes before electroshock
[3] = type: in vivo, mouse; details: control experiments; 95-percent confidence limits
Protocol: This type of antagonism was evaluated in the mouse in three ways, namely: (1) protection from death from one hypodermic injection of strychnine: (2) evaluation of the LD50 of strychnine in mice both treated and untreated with AP-28, and (3) influence on the time required to cause animals to die by slow intravenous perfusion of strychnine. […] Groups of six mice were used. (2) increasing amounts of strychnine sulfate were injected hypodermically. In two experiments 200 or 400 mg/kg of intraperitoneal AP-28 were given 30 minutes prior to strychnine injection and the LD50 was calculated. The following results were obtained (95-percent confidence limits): […]

[4] = Enhancement of the hypnotic effect of sodium pentobarbital; type: in vivo, mouse; details: sodium pentobarbital 40 mg/kg i.p. alone
Protocol: Forty mg/kg of sodium pentobarbital was injected intraperitoneally into mice and note was taken of animals losing the righting reflex and for how long. Other mice received a preliminary treatment with AP-28 at a dosage of 250 and 500 mg/kg, intraperitoneally, and thereafter sodium pentobarbital was given to them.

For C[C@H](N)Cc1ccccc1 [d-amphetamine, d-amphetamine sulfate, reference compound], the “Mean number of crossings (± SE) in 10 minutes” value [1] was 657 ± 59.
For CCC1(c2ccccc2)C(=O)NC(=O)NC1=O [Phenobarbital Na, Phenobarbital sodium, reference compound], the Number animals died [2] was 0/8, the “Number animals with clonic convulsions” value ([2]; in parentheses number treated) was 8(8) and the “Number animals with tonic convulsions” value ([2]; in parentheses number treated) was 0(8).
In the case of O=C1C[C@@H]2OCC=C3CN4CC[C@]56c7ccccc7N1[C@H]5[C@H]2[C@H]3C[C@H]46 [Strychnine, strychnine sulfate], the LD50 of strychnine [3] was 0.83 (1.02-0.67) mg/kg.
For CCCC(C)C1(CC)C(=O)NC(=O)NC1=O (stereo not shown) [sodium pentobarbital, reference compound], the Animals under hypnosis/treated [4] was 3/4 and the “Duration of hypnosis in minutes (m ± SE)” value ([4]; zero assigned to animals not losing righting reflex) was 3.25 ± 3.4 min.

— patent publication US3968233A, “α-Amino-γ-butyrolactones as sedatives” (priority 1975, dated 1976)
